Values joined by “and” are separate entries in the source; they are usually repeats but may differ in a detail not shown here. Equal entries are not always repeated.
Assays:
[1] = tested on: human donor dispersed islet cells; test: Insulin secretion from healthy human donor dispersed islet cells; assay type: cell-based; parameters: Insulin secretion: unit not given here
Procedure: (§1) Pancreata of nondiabetic C57BL/6J mice were digested using collagenase P (Roche Diagnostics, catalog 11213873001), and islets were manually picked up using a stereomicroscope (ZEISS Stemi 305). […] Isolated mouse islets or provided human islets were dispersed as described ([28]). Briefly, 100–120 islets were washed 2 times using modified HBSS, then dispersed in 600 μL Accutase (Innovative Cell Technologies, catalog AT-104) by gently pipetting up and down for 7 minutes at 37°C. […] Following refreshing of KRBH, cells were dispensed in 8 microfuge tubes (2,000 cells/tube) and treated with WCDD301, preclustered Ephrin-A5 Fc, or preclustered Fc in the presence or absence of the competitive inhibitor of EphA4 receptor, rhyncophylline ([60]) (MilliporeSigma, catalog SML2345). In the presence or absence of these effectors, secretion assay was performed sequentially as shown in Supplemental Table 5. […] Preclustering of Ephrin-A5 Fc was done by mixing Ephrin-A5 Fc or Fc alone (BioLegend, catalog 790102) with anti-Fc antibody (Invitrogen, catalog A16086) (1:10 molar ratio) 20 minutes before treatment ([62]). […] Shedding of cleaved EphA4 was measured from the cell culture medium. Experiments were performed by dispersion of 200 islets, and EphA4 levels in media were measured by EphA4 ELISA (ABclonal, catalog RK06572).
(§2) The Integrated Islet Distribution Program provided us human donor islets with their characteristics (Supplemental Table 6). Islets were centrifuged at 500g for 3 minutes, resuspended in CMRL 1066 medium (Gibco, catalog 1150-037) containing 11 mM glucose, and rested in an incubator overnight.
(§3) For the hormone secretion assay, islets or dispersed islet cells were adapted in KRBH buffer containing 11 mM glucose for 1 hour. Then, after 2 washes in HBSS containing 11 mM glucose, islets or cells were treated in the following sequential order in the presence or absence of WCDD301: incubation in KRBH (1 mM glucose, 30 minutes) followed by medium collection, incubation in KRBH (11 mM glucose, 30 minutes) followed by medium collection.

[2] = tested on: dispersed islet cells of donors with T1D; test: Glucagon secretion from dispersed islet cells of donors with T1D; assay type: cell-based, human; conditions: for Secretion of glucagon: dispersed islet cells, T1D donors, one value per donor, Figure 2H
Procedure: as §1, §2, §3

[3] = tested on: diabetic NOD mice; test: Daily urine glucose in NOD mice; assay type: in vivo, mouse
Procedure: We preweighed WCDD301 into microfuge tubes and reconstituted it using deionized water. Using a 10 μL pipette tip, we placed the calculated dose of WCDD301 (at the volume range of 1–1.5 μL) within the center of pearls. WCDD301 was placed into pearls 30–45 minutes before administration. For oral administration of pearls, we designed an applicator using a disposable plastic transfer pipette and syringe plunger lubricated with olive oil. Food intake and body weight in each experimental group (diabetic WCDD301-treated, diabetic placebo-treated, and nondiabetic placebo-treated NOD mice) were monitored daily for 4 weeks. Urine glucose was measured from individually caged NOD mice (nondiabetic placebo treated n = 2, diabetic placebo treated n = 2, and diabetic WCDD301 treated n = 4, 21–23 weeks old) with metabolic cages. Urine glucose was monitored every 24 hours for 10 days by semiquantitative measurements (P-STICKS, Millpledge Veterinary).

[4] = tested on: diabetic NOD mice; test: Hematoxylin-Eosin staining of pancreatic islets of NOD mice; assay type: in vivo, mouse; conditions: WCDD301-treated diabetic NOD mice
[5] = tested on: mouse dispersed islet cells; test: Immunofluorescence: F-actin intensity in glucagon+ mouse dispersed islet cells; assay type: cell-based;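 for F-actin intensity: ImageJ intensity within ROI drawn around each glucagon+ cell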
Procedure: (§4) Coverslips were treated with WCDD301, preclustered Ephrin-A5 Fc, or preclustered Fc in the following sequential order: KRBH (11 mM glucose, 30 minutes), KRBH (1 mM glucose, 60 minutes), KRBH (1 mM glucose, 30 minutes), and KRBH (11 mM glucose, 60 minutes). After treatment, coverslips were washed once in PBS, fixed in 2% paraformaldehyde in PBS (30 minutes), and again washed in PBS. […] Following wash in PBS, coverslips were incubated in a mixture of Alexa Fluor 555 Phalloidin (Cell Signaling Technology, catalog 8953) and secondary antibodies (goat anti-rabbit Alexa Fluor 488, catalog A-21094, 1:1,000, Molecular Probes; and goat anti-mouse Alexa Fluor 633, catalog A21052, 1:1,000, Life Technologies) for 1 hour at RT. Both primary and secondary antibodies were diluted in blocking buffer containing 0.05% Tween 20. Coverslips were washed using PBS and counterstained by using DAPI (1:1,000) for 10 minutes. Following 2 washes in PBS, coverslips were mounted on glass slides using ProLong Glass Antifade Mountant (Invitrogen, catalog P36980). Images were captured using the Zeiss LSM880 microscope with a Plan-Apochromat 63× 1.4 NA objective lens by setting dual-band dichroic/filter for 405, 488, 561, and 633 nm laser excitation. For each slide, 25–30 fields of view were scanned, and in each field of view, 3–5 cells were imaged. […] Values of intensity were compared among groups using 1-way ANOVA, α = 0.05.

[6] = tested on: mouse dispersed islet cells; test: Immunofluorescence: EphA4 intensity in glucagon+ mouse dispersed islet cells; assay type: cell-based;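 for EphA4 intensity: ImageJ intensity within ROI drawn around each glucagon+ cell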
Procedure: as §4

[7] = Glucose (1 mM), WCDD301 0.75 µM
[8] = Glucose (11 mM), WCDD301 0.75 µM
[9] = Glucose (11 mM), WCDD301 1.5 µM

CC(=O)OCC(N)(COC(C)=O)COC(C)=O [WCDD301, 2-(acetoxymethyl)-2-aminopropane-1,3-diyl diacetate]
Effect on insulin secretion ([1]; 1, 3 or 6 hours exposure): transient effect | Insulin secretion ([1]; 1 hour exposure, WCDD301 0.75 µM, 1 mM (first group), Figure 2D): 0.23 and 0.21 and 0.2 | Insulin secretion ([1]; 1 hour exposure, WCDD301 0.75 µM, head printed 1 mM (second group c4-c7), Figure 2D): 0.277 and 0.233 and 0.25 | Insulin secretion ([1]; 1 hour exposure, WCDD301 1.5 µM, 1 mM (first group), Figure 2D): 0.247 and 0.17 and 0.22 | Insulin secretion ([1]; 1 hour exposure, WCDD301 1.5 µM, head printed 1 mM (second group c4-c7), Figure 2D): 0.299 and 0.278 and 0.26 | Insulin secretion ([1]; 1 hour exposure, WCDD301 3 µM, 1 mM (first group), Figure 2D): 0.133 and 0.134 and 0.23 | Insulin secretion ([1]; 1 hour exposure, WCDD301 3 µM, head printed 1 mM (second group c4-c7), Figure 2D): 0.196 and 0.199 and 0.27 | Insulin secretion ([1]; 3 hours exposure, WCDD301 0.75 µM, 1 mM (first group), Figure 2E): 0.188 and 0.216 and 0.2 | Insulin secretion ([1]; 3 hours exposure, WCDD301 0.75 µM, head printed 1 mM (second group c4-c7), Figure 2E): 0.279 and 0.305 and 0.31 | Insulin secretion ([1]; 3 hours exposure, WCDD301 1.5 µM, 1 mM (first group), Figure 2E): 0.156 and 0.166 and 0.2 | Insulin secretion ([1]; 3 hours exposure, WCDD301 1.5 µM, head printed 1 mM (second group c4-c7), Figure 2E): 0.227 and 0.252 and 0.3 | Insulin secretion ([1]; 3 hours exposure, WCDD301 3 µM, 1 mM (first group), Figure 2E): 0.23 and 0.247 and 0.22 | Insulin secretion ([1]; 3 hours exposure, WCDD301 3 µM, head printed 1 mM (second group c4-c7), Figure 2E): 0.249 and 0.253 and 0.31 | Insulin secretion ([1]; 6 hours exposure, WCDD301 0.75 µM, 1 mM (first group), Figure 2F): 0.248 and 0.23 and 0.252 | Insulin secretion ([1]; 6 hours exposure, WCDD301 0.75 µM, head printed 1 mM (second group c4-c7), Figure 2F): 0.383 and 0.391 and 0.37 | Insulin secretion ([1]; 6 hours exposure, WCDD301 1.5 µM, 1 mM (first group), Figure 2F): 0.257 and 0.265 and 0.24 | Insulin secretion ([1]; 6 hours exposure, WCDD301 1.5 µM, head printed 1 mM (second group c4-c7), Figure 2F): 0.41 and 0.395 and 0.38 | Insulin secretion ([1]; 6 hours exposure, WCDD301 3 µM, 1 mM (first group), Figure 2F): 0.185 and 0.176 and 0.25 | Insulin secretion ([1]; 6 hours exposure, WCDD301 3 µM, head printed 1 mM (second group c4-c7), Figure 2F): 0.327 and 0.324 and 0.4 | Insulin secretion (Supplemental Figure 4A; quantity not given) [1, 7]: 14.24 and 14.812 and 14.5 | Insulin secretion (Supplemental Figure 4B; quantity not given) [1, 7]: 12.664 and 13.794 and 14 | Insulin secretion (Supplemental Figure 4C; quantity not given) [1, 7]: 11.67 and 7.26 and 14 | Insulin secretion (Supplemental Figure 4A; quantity not given) ([1]; Glucose (1 mM), WCDD301 1.5 µM): 17.532 and 20.466 and 12 | Insulin secretion (Supplemental Figure 4B; quantity not given) ([1]; Glucose (1 mM), WCDD301 1.5 µM): 15.67 and 15.802 and 13.5 | Insulin secretion (Supplemental Figure 4C; quantity not given) ([1]; Glucose (1 mM), WCDD301 1.5 µM): 13.328 and 14.218 and 10 | Insulin secretion (Supplemental Figure 4A; quantity not given) ([1]; Glucose (1 mM), WCDD301 3 µM): 16.564 and 14.55 and 11.5 | Insulin secretion (Supplemental Figure 4B; quantity not given) ([1]; Glucose (1 mM), WCDD301 3 µM): 18.692 and 16.896 and 14 | Insulin secretion (Supplemental Figure 4C; quantity not given) ([1]; Glucose (1 mM), WCDD301 3 µM): 12.61 and 13.59 and 9 | Insulin secretion (Supplemental Figure 4A; quantity not given) [1, 8]: 22.29 and 19.8308 and 21 | Insulin secretion (Supplemental Figure 4B; quantity not given) [1, 8]: 16.996 and 15.584 and 14.5 | Insulin secretion (Supplemental Figure 4A; quantity not given) [1, 9]: 29.994 and 17.548 and 22 | Insulin secretion (Supplemental Figure 4B; quantity not given) [1, 9]: 19.714 and 16.496 and 13 | Insulin secretion (Supplemental Figure 4A; quantity not given) ([1]; Glucose (11 mM), WCDD301 3 µM): 17.376 and 17.746 and 23 | Insulin secretion (Supplemental Figure 4B; quantity not given) ([1]; Glucose (11 mM), WCDD301 3 µM): 17.584 and 17.686 and 13 | Insulin secretion (Supplemental Figure 4C; quantity not given) ([1]; Glucose (11 mM), WCDD301 3 µM): 16.66 and 13.592 and 8.5 | Effect on glucagon secretion ([2]; dispersed islet cells from donors with long-standing T1D): reduced glucagon secretion | Secretion of glucagon ([2]; 1 mM glucose): 13.445 and 14.59 | Secretion of glucagon ([2]; 11 mM glucose): 27.55 and 31.85 | Daily urine glucose (Figure 7D) ([3]; Diabetic, WCDD301 treated, Day 10): 0 | Urine glucose, daily monitoring ([3]; diabetic WCDD301-treated mice): phenotypes similar to nondiabetic placebo-treated mice | Mononuclear cell infiltration and edema (Hematoxylin-Eosin) [4]: no mononuclear infiltration or apparent edema | Effect on intracellular F-actin ([5]; dispersed mouse islet cells): increased intracellular F-actin intensity | F-actin intensity ([5]; mouse cells, individual values, Figure 3F): 7.9 and 8.3 and 9.3 and 13.4 and 7.5 and 18.4 and 8.1 and 17.0 | Effect on EphA4 intensity ([6]; dispersed mouse islet cells): increased EphA4 intensity | EphA4 intensity ([6]; mouse cells, individual values, Figure 3H): 35.0 and 29.0 and 43.3 and 17.8 and 36.0 and 30.0 and 27.0 and 37.0 and 31.0 and 41.7 and 27.2 and 38.0 and 32.0 and 32.1 and 39.0 and 33.0 and 19.7
